Data taken from patent publication US20230173029A1, “TREATMENT OF CARDIAC REMODELLING” (UNIVERSITETET I OSLO, priority 2020, published 2023).

Key:
Format in all cases: in vivo, rat
[1] = tested on: Dahl salt-sensitive (Dahl/SS) male rats; experiment: Renal function and structure in hypertensive Dahl/SS rats (data not shown); conditions: HT Dahl/SS rats
[2] = tested on: Myh7; experiment: Myh7 gene expression in left ventricle tissue by qPCR; conditions: HT Dahl/SS rats
Experimental: (§1) A total of 29 adult Dahl salt-sensitive (Dahl/SS) male rats with an initial weight of 150 to 200 g were included in the study. Rats were purchased from Charles River Laboratories (USA) and housed in a room with a 12/12-hour light cycle, a temperature of 21° C., and a humidity of 55%. Rats were maintained on a normal salt diet up to seven weeks of age. Twenty-two Dahl/SS were then randomly switched to a high salt diet for 6 weeks to induce hypertension, whilst 7 rats were kept normotensive (NT) on normal salt diet. Drinking water and food was provided ad libitum.
After 2 weeks of high salt diet, 15 hypertensive (HT) rats were started on treatment with proANP31-67. Rats treated with proANP31-67 received one of two dosages: 50 ng/kg/day (n=8) or 100 ng/kg/day (n=7). […]
Total RNA was extracted from left ventricle tissue using an RNeasy Fibrous Tissue Mini Kit (Qiagen, Cat. #74704). RNA concentration and quality was assessed by NanoDrop ND-1000 Spectrophotometer (Thermo Fisher Scientific). cDNA synthesis was performed using an iSCRIPT synthesis kit (Bio-Rad). Transcript levels of Mhy7 (Rn00568328_m1) and Rpl32 (Rn00820748_g1) were determined using TaqMan assays (Applied Biosystems) detected on a QuantStudio3 (Thermo Fisher Scientific) and analysed using QuantStudio™ Design (Thermo Fisher Scientific). Mhy7 mRNA levels were calculated by the ΔΔCt method and normalized to Rpl32 transcript value. […]

[3] = tested on: Dahl salt-sensitive (Dahl/SS) male rats; experiment: Autopsy: body weight, heart weight and heart weight to body weight ratio in hypertensive Dahl/SS rats; conditions: for HW (heart weight) / HW/BW: HT Dahl/SS rats on high salt diet, at 6 weeks, mean ± SEM
Experimental: as §1
After 2 weeks of high salt diet, 15 hypertensive (HT) rats were started on treatment with proANP31-67. Rats treated with proANP31-67 received one of two dosages: 50 ng/kg/day (n=8) or 100 ng/kg/day (n=7). A total of 14 rats received only vehicle: control rats on a normal salt diet (n=7); and HT rats on a high salt diet (n=7). Rats were randomly assigned to the 3 groups (i.e. control normal salt; high salt untreated; high salt plus treatment).
Drug or vehicle was delivered via Alzet osmotic mini-pumps (Model 2004; mean pumping rate […], mean fill volume […]) implanted subcutaneously (as instructed by the manufacturer) for 28 days. Animals were treated with buprenorphine (0.05 mg/kg s.c.) as analgesic 30 minutes before and up to 1 day following implantation of pumps.
Experiments were performed as described above in Example 1, using a group of 8 Dahl/SS rats which, at 7 weeks of age, were switched to a high salt diet as described above. After 2 weeks of high salt diet, this group was started on proANP31-67 treatment. The rats were administered proANP31-67 at a renal sub-therapeutic dosage of 25 ng/kg/day.

[4] = 50 or 100 ng/kg/day s.c. (pooled) for 28 days

For “proANP31-67: Human proANP31-67, linear peptide fragment of proANP consisting of SEQ ID NO: 1; also known as vessel dilator, VSDL (EVVPPQVLSEPNEEAGAALSPLPEVPPWTGEVSPAQR; listed as Homo sapiens)”, the “protective effects on renal function” value ([1]; 25 ng/kg/day s.c.) was “not to display the protective effects on renal function”, the “effects on renal function and structure” value ([1]; 50 or 100 ng/kg/day s.c., data not shown) was “protective effects on renal function and structure” and the “expression of the Myh7 gene associated with adverse cardiac hypertrophy” value ([2]; 25 ng/kg/day s.c., FIG. 5F) was “attenuated”. For the same substance, the “expression of the Myh7 gene associated with adverse cardiac hypertrophy” value ([2]; 50 or 100 ng/kg/day s.c. (pooled), FIG. 1F) was “attenuated”, the “HW (heart weight)” value ([3]; 25 ng/kg/day s.c.) was 1304 ± 41.4 mg and the HW/BW ([3]; 25 ng/kg/day s.c.) was 3.68 ± 0.07. The “HW (heart weight)” value [3, 4] was 1365 ± 30.1 mg, the HW/BW [3, 4] was 3.97 ± 0.1 mg/g and the “increase in HW/BW relative to NT rats” value ([3]; HT Dahl/SS rats, 25 ng/kg/day s.c., FIG. 5B) was “no increase”. For the same substance, the “percentage increase in heart weight/body weight compared to NT” value ([3]; HT Dahl/SS rats, 50 or 100 ng/kg/day s.c. (pooled), FIG. 1B) was “less than 5%”.
